According to patent publication US7964607B2, “Pyrazolo[3,4-d]pyrimidine compounds” (Pfizer Inc., priority 2007, dated 2011):

Target: T1, human recombinant PDE9 enzyme (Homo sapiens, UniProt O76083)
T1 construct: made in house; host or cells: SF-9 insect cells
Experiment: Phosphodiesterase 9 (PDE9) inhibitory activity, Scintillation Proximity (SPA) assay
Type: biochemical
Details: human recombinant PDE9 from SF-9 cells; 50 nM [3H]cGMP; room temperature, 30 min; additional compounds Ex. 115-228; read-out: G5678A (U):IC50
Outline: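 Recombinant human PDE9 from SF-9 cell lysate supernatant, diluted so that ≤20% of [3H]cGMP substrate was hydrolysed to 5′GMP. Reaction started with enzyme and run 30 min at room temperature with 2% DMSO final. SPA beads were counted after >300 min; background came from a high concentration of a PDE inhibitor.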

T1 sequence (O76083 whole entry): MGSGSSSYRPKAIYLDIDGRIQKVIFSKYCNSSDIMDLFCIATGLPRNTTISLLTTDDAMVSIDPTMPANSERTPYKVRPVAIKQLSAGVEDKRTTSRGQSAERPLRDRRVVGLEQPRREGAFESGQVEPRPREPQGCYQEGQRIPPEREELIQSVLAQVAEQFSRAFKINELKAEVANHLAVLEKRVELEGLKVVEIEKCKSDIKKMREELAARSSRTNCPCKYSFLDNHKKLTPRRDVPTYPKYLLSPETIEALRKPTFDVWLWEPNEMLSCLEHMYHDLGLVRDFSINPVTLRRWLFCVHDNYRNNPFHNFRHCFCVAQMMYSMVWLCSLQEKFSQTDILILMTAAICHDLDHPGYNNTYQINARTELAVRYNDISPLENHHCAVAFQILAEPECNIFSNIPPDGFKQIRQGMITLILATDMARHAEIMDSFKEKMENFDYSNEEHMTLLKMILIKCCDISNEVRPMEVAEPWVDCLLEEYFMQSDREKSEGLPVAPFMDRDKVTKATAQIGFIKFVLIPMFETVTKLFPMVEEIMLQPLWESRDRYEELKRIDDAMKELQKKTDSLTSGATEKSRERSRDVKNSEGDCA

| Compound | IC50 [nM] |
| --- | --- |
| C[C@@H]1CN(Cc2cc(Cl)cc(Cl)c2)C[C@H]1c1nc2c(cnn2C2CCCC2)c(=O)[nH]1 (racemic) [Example 187, 1-cyclopentyl-6-[(3,4-trans)-1-(3,5-dichlorobenzyl)-4-methylpyrrolidin-3-yl]-1,5-dihydro-4H-pyrazolo[3,4-d]pyrimidin-4-one] | 70.9 |
| CC(C)Oc1ccc(CN2C[C@@H](C)[C@H](c3nc4c(cnn4C4CCCC4)c(=O)[nH]3)C2)cc1 (racemic) [Example 188, 1-cyclopentyl-6-[(3,4-trans)-1-(4-isopropoxybenzyl)-4-methylpyrrolidin-3-yl]-1,5-dihydro-4H-pyrazolo[3,4-d]pyrimidin-4-one] | 72.7 |
| C[C@@H]1CN(Cc2ccnc(C(C)(C)O)c2)C[C@H]1c1nc2c(cnn2C2CCCC2)c(=O)[nH]1 (racemic) [Example 189, 1-cyclopentyl-6-[(3,4-trans)-1-{[2-(1-hydroxy-1-methylethyl)pyridin-4-yl]methyl}-4-methylpyrrolidin-3-yl]-1,5-dihydro-4H-pyrazolo[3,4-d]pyrimidin-4-one] | 23.7 |
| C[C@@H]1CN(Cc2nc3c(s2)CCCC3)C[C@H]1c1nc2c(cnn2C2CCCC2)c(=O)[nH]1 (racemic) [Example 190, 1-cyclopentyl-6-[(3,4-trans)-4-methyl-1-(4,5,6,7-tetrahydro-1,3-benzothiazol-2-ylmethyl)pyrrolidin-3-yl]-1,5-dihydro-4H-pyrazolo(3,4-d]pyrimidin-4-one] | 55.4 |
| Cc1cc(C)c(CN2C[C@@H](C)[C@H](c3nc4c(cnn4C4CCCC4)c(=O)[nH]3)C2)c(C)c1 (racemic) [Example 191, 1-cyclopentyl-6-[(3,4-trans)-1-(mesitylmethyl)-4-methylpyrrolidin-3-yl]-1,5-dihydro-4H-pyrazolo[3,4-d]pyrimidin-4-one] | 198 |
| C[C@@H]1CN(Cc2c(Cl)cccc2Cl)C[C@H]1c1nc2c(cnn2C2CCCC2)c(=O)[nH]1 (racemic) [Example 192, 1-cyclopentyl-6-[(3,4-trans)-1-(2,6-dichlorobenzyl)-4-methylpyrrolidin-3-yl]-1,5-dihydro-4H-pyrazolo[3,4-d]pyrimidin-4-one] | 236 |
| C[C@@H]1CN(Cc2ccc(C#N)cc2)C[C@H]1c1nc2c(cnn2C2CCCC2)c(=O)[nH]1 (racemic) [Example 193, 4-{[(3,4-trans)-3-(1-cyclopentyl-4-oxo-4,5-dihydro-1H-pyrazolo[3,4-d]pyrimidin-6-yl)-4-methylpyrrolidin-1-yl]methyl}benzonitrile] | 57.7 |
| COc1ccc(F)c(CN2C[C@@H](C)[C@H](c3nc4c(cnn4C4CCCC4)c(=O)[nH]3)C2)c1 (racemic) [Example 194, 1-cyclopentyl-6-[(3,4-trans)-1-(2-fluoro-5-methoxybenzyl)-4-methylpyrrolidin-3-yl]-1,5-dihydro-4H-pyrazolo[3,4-d]pyrimidin-4-one] | 54.7 |
| COc1c(C)cnc(CN2C[C@@H](C)[C@H](c3nc4c(cnn4C4CCCC4)c(=O)[nH]3)C2)c1C (racemic) [Example 196, 1-cyclopentyl-6-{(3,4-trans)-1-[(4-methoxy-3,5-dimethylpyridin-2-yl)methyl]-4-methylpyrrolidin-3-yl}-1,5-dihydro-4H-pyrazolo[3,4-d]pyrimidin-4-one] | 187 |
| Cc1cc(C)cc(CN2C[C@@H](C)[C@H](c3nc4c(cnn4C4CCCC4)c(=O)[nH]3)C2)c1 (racemic) [Example 197, 1-cyclopentyl-6-[(3,4-trans)-1-(3,5-dimethylbenzyl)-4-methylpyrrolidin-3-yl]-1,5-dihydro-4H-pyrazolo[3,4-d]pyrimidin-4-one] | 53.5 |
| Cc1ccc(CN2C[C@@H](C)[C@H](c3nc4c(cnn4C4CCCC4)c(=O)[nH]3)C2)cc1C (racemic) [Example 198, 1-cyclopentyl-6-[(3,4-trans)-1-(3,4-dimethylbenzyl)-4-methylpyrrolidin-3-yl]-1,5-dihydro-4H-pyrazolo[3,4-d]pyrimidin-4-one] | 93.6 |
| C[C@@H]1CN(Cc2nc3ccccc3n2C)C[C@H]1c1nc2c(cnn2C2CCCC2)c(=O)[nH]1 (racemic) [Example 199, 1-cyclopentyl-6-{(3,4-trans)-4-methyl-1-[(1-methyl-1H-benzimidazol-2-yl)methyl]pyrrolidin-3-yl}-1,5-dihydro-4H-pyrazolo[3,4-d]pyrimidin-4-one] | 35.3 |
| C[C@@H]1CN(Cc2ccc3c(c2)OCCN3C)C[C@H]1c1nc2c(cnn2C2CCCC2)c(=O)[nH]1 (racemic) [Example 200, 1-cyclopentyl-6-{(3,4-trans)-4-methyl-1-[(4-methyl-3,4-dihydro-2H-1,4-benzoxazin-7-yl)methyl]pyrrolidin-3-yl}-1,5-dihydro-4H-pyrazolo[3,4-d]pyrimidin-4-one] | 176 |
| C[C@@H]1CN(CCCc2ccccc2)C[C@H]1c1nc2c(cnn2C2CCCC2)c(=O)[nH]1 (racemic) [Example 201, 1-cyclopentyl-6-[(3,4-trans)-4-methyl-1-(3-phenylpropyl)pyrrolidin-3-yl]-1,5-dihydro-4H-pyrazolo[3,4-d]pyrimidin-4-one] | 146 |
| C[C@@H]1CN(Cc2ccccc2C(F)(F)F)C[C@H]1c1nc2c(cnn2C2CCCC2)c(=O)[nH]1 (racemic) [Example 202, 1-cyclopentyl-6-{(3,4-trans)-4-methyl-1-[2-(trifluoromethyl)benzyl]pyrrolidin-3-yl}-1,5-dihydro-4H-pyrazolo[3,4-d]pyrimidin-4-one] | 104 |
| C[C@@H]1CN(CCCC(F)(F)F)C[C@H]1c1nc2c(cnn2C2CCCC2)c(=O)[nH]1 (racemic) [Example 203, 1-cyclopentyl-6-{(3,4-trans)-4-methyl-1-(4,4,4-trifluorobutyl)pyrrolidin-3-yl]-1,5-dihydro-4H-pyrazolo[3,4-d]pyrimidin-4-one] | 83.7 |
| COc1cccc(CN2C[C@@H](C)[C@H](c3nc4c(cnn4C4CCCC4)c(=O)[nH]3)C2)c1 (racemic) [Example 204, 1-cyclopentyl-6-[(3,4-trans)-1-(3-methoxybenzyl)-4-methylpyrrolidin-3-yl]-1,5-dihydro-4H-pyrazolo[3,4-d]pyrimidin-4-one] | 9.56 |
| C[C@@H]1CN(CC2CCCC2)C[C@H]1c1nc2c(cnn2C2CCCC2)c(=O)[nH]1 (racemic) [Example 205, 1-cyclopentyl-6-[(3,4-trans)-1-(cyclopentylmethyl)-4-methylpyrrolidin-3-yl]-1,5-dihydro-4H-pyrazolo[3,4-d]pyrimidin-4-one] | 286 |
| COc1ccc(CN2C[C@@H](C)[C@H](c3nc4c(cnn4C4CCCC4)c(=O)[nH]3)C2)c(OC)c1 (racemic) [Example 206, 1-cyclopentyl-6-[(3,4-trans)-1-(2,4-dimethoxybenzyl)-4-methylpyrrolidin-3-yl]-1,5-dihydro-4H-pyrazolo[3,4-d]pyrimidin-4-one] | 68.4 |
| C[C@@H]1CN(Cc2ccc(CN3CCOCC3)cc2)C[C@H]1c1nc2c(cnn2C2CCCC2)c(=O)[nH]1 (racemic) [Example 207, 1-cyclopentyl-6-{(3,4-trans)-4-methyl-1-[4-(morpholin-4-ylmethyl)benzyl]pyrrolidin-3-yl}-1,5-dihydro-4H-pyrazolo[3,4-d]pyrimidin-4-one] | 46.2 |
| C[C@@H]1CN(Cc2ccc3nsnc3c2)C[C@H]1c1nc2c(cnn2C2CCCC2)c(=O)[nH]1 (racemic) [Example 208, 6-[(3,4-trans)-1-(2,1,3-benzothiadiazol-5-ylmethyl)-4-methylpyrrolidin-3-yl]-1-cyclopentyl-1,5-dihydro-4H-pyrazolo[3,4-d]pyrimidin-4-one] | 7.13 |
| C[C@@H]1CN(CCOCc2ccccc2)C[C@H]1c1nc2c(cnn2C2CCCC2)c(=O)[nH]1 (racemic) [Example 209, 6-{(3,4-trans)-1-[2-(benzyloxy)ethyl]-4-methylpyrrolidin-3-yl}-1-cyclopentyl-1,5-dihydro-4H-pyrazolo[3,4-d]pyrimidin-4-one] | 52.9 |
| C[C@@H]1CN(Cc2c(F)cccc2F)C[C@H]1c1nc2c(cnn2C2CCCC2)c(=O)[nH]1 (racemic) [Example 210, 1-cyclopentyl-6-[(3,4-trans)-1-(2,6-diflurobenzyl)-4-methylpyrrolidin-3-yl]-1,5-dihydro-4H-pyrazolo[3,4-d]pyrimidin-4-one] | 16.2 |
| COc1ccccc1CN1C[C@@H](C)[C@H](c2nc3c(cnn3C3CCCC3)c(=O)[nH]2)C1 (racemic) [Example 211, 1-cyclopentyl-6-[(3,4-trans)-1-(2-methoxybenzyl)-4-methylpyrrolidin-3-yl]-1,5-dihydro-4H-pyrazolo[3,4-d]pyrimidin-4-one] | 39.8 |
| Cc1nc(C)c(CN2C[C@@H](C)[C@H](c3nc4c(cnn4C4CCCC4)c(=O)[nH]3)C2)nc1C (racemic) [Example 212, 1-cyclopentyl-6-{(3,4-trans)-4-methyl-1-[(3,5,6-trimethylpyrazin-2-yl)methyl]pyrrolidin-3-yl}-1,5-dihydro-4H-pyrazolo[3,4-d]pyrimidin-4-one] | 9.98 |
| C[C@@H]1CN(Cc2ccc(Cl)cc2Cl)C[C@H]1c1nc2c(cnn2C2CCCC2)c(=O)[nH]1 (racemic) [Example 213, 1-cyclopentyl-6-[(3,4-trans)-1-(2,4-dichlorobenzyl)-4-methylpyrrolidin-3-yl]-1,5-dihydro-4H-pyrazolo[3,4-d]pyrimidin-4-one] | 124 |
| C[C@@H]1CN(Cc2cnn3c2CCCCC3)C[C@H]1c1nc2c(cnn2C2CCCC2)c(=O)[nH]1 (racemic) [Example 214, 1-cyclopentyl-6-[(3,4-trans)-4-methyl-1-(5,6,7,8-tetrahydro-4H-pyrazolo[1,5-a]azepin-3-ylmethyl)pyrrolidin-3-yl]-1,5-dihydro-4H-pyrazolo[3,4-d]pyrimidin-4-one] | 15.7 |
| C[C@@H]1CN(Cc2cccc(F)c2)C[C@H]1c1nc2c(cnn2C2CCCC2)c(=O)[nH]1 (racemic) [Example 215, 1-cyclopentyl-6-[(3,4-trans)-1-(3-fluorobenzyl)-4-methylpyrrolidin-3-yl]-1,5-dihydro-4H-pyrazolo[3,4-d]pyrimidin-4-one] | 11.5 |
